Assay results reported in PubChem BioAssay (NCI).
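Exposure lasted 48 hours, with cells grown in 96-well plates and compounds tested at five concentrations. TGI: concentration producing complete growth inhibition.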

What was measured:
Assay in all cases: inhibition of tumour cell growth, NCI panel, 48 h
TK-10 renal = system: TK-10 renal
SK-MEL-28 melanoma = system: SK-MEL-28 melanoma
HCT-116 colon = system: HCT-116 colon
ACHN renal = system: ACHN renal
OVCAR-4 ovarian = system: OVCAR-4 ovarian
786-0 renal = system: 786-0 renal
SF-268 CNS = system: SF-268 CNS
MCF7 breast = system: MCF7 breast
T-47D breast = system: T-47D breast
HL-60(TB) leukemia = system: HL-60(TB) leukemia

Compound	TGI (TK-10 renal)	TGI (SK-MEL-28 melanoma)	TGI (HCT-116 colon)	TGI (ACHN renal)	TGI (OVCAR-4 ovarian)	TGI (786-0 renal)	TGI (SF-268 CNS)	TGI (MCF7 breast)	TGI (T-47D breast)	TGI (HL-60(TB) leukemia)
CCOP(=O)(/C=C\n1cc(C)c(=O)[nH]c1=O)OCC	> 100 µM	> 100 µM	> 100 µM	> 100 µM	> 100 µM	> 100 µM	> 100 µM	> 100 µM	> 100 µM	> 100 µM
CCOC(=O)c1nc2ccc(C(F)(F)F)cc2nc1Oc1cc(OC)c(OC)c(OC)c1	> 100 µM	> 100 µM	> 100 µM	> 100 µM	7.69 µM	> 100 µM	> 100 µM	> 100 µM	> 100 µM	> 100 µM
CCCCCCCC/C=C\CCCCCCC/C=C1\C[C@](/C=C/C(=O)OC)(CO)OC1=O	8 µM	3.38 µM	6.26 µM	7.9 µM	10.9 µM	3.61 µM	4.4 µM	14.7 µM	13.1 µM	6.14 µM
O=c1[nH]nc(-c2ccccc2)n1/N=C\c1ccccc1	> 100 µM	> 100 µM	> 100 µM	> 100 µM	> 100 µM	> 100 µM	> 100 µM	> 100 µM	> 100 µM	> 100 µM
CN(C)c1nc(N)nc(CS)n1	> 100 µM	> 100 µM	> 100 µM	> 100 µM	> 100 µM	> 100 µM	> 100 µM	> 100 µM	> 100 µM	60.6 µM
Cc1cccc(Nc2nn3c(=O)c4c5c(sc4nc3s2)CCCC5)c1	> 100 µM	> 100 µM	> 100 µM	> 100 µM	> 100 µM	> 100 µM	> 100 µM	> 100 µM	74.2 µM	> 100 µM
CN(C)c1ccc(/C(F)=C(F)/C(F)=C(F)/C(F)=C(\F)c2ccc(Br)cc2)cc1	> 100 µM	> 100 µM	> 25.5 µM	> 100 µM	> 100 µM	22.2 µM	> 100 µM	> 100 µM	> 100 µM	> 75 µM
C=C(C(N)=O)c1ccc([N+](=O)[O-])o1	27.2 µM	12.7 µM	14.7 µM	12.2 µM	29 µM	24.1 µM	37.9 µM	19.8 µM	48 µM	6.12 µM
CC(=O)NCCC1CN(C(=O)/C=C/I)c2ccccc21 (stereo not given)	3.63 µM	18.2 µM	14.3 µM	17.8 µM	4.45 µM	3.11 µM	23.5 µM	2.87 µM	4.46 µM	> 100 µM
Cc1ccc([S@](=O)c2occc2C=O)cc1	18.6 µM	9.02 µM	9.64 µM	28.7 µM	> 53.2 µM	11.3 µM	14.9 µM	13.3 µM	7.11 µM	4.25 µM
CCN(CC)N1C(=O)[N+](CC)(CC)N=C1[O-]	> 100 µM	> 100 µM	> 100 µM	> 100 µM	> 100 µM	> 100 µM	> 100 µM	> 100 µM	> 100 µM	> 100 µM
OCCO/N=C1\C(c2c(O)[nH]c3ccccc23)=Nc2ccccc21	> 100 µM	> 100 µM	> 100 µM	> 100 µM	> 100 µM	> 100 µM	> 100 µM	> 100 µM	> 100 µM	> 100 µM
COc1cc([C@@H]2c3cc4c(cc3[C@@H](c3c(O)cc(O)c5c3O[C@H](c3ccc(O)c(O)c3)[C@@H](O)C5)[C@H]3COC(=O)[C@H]23)OCO4)cc(OC)c1OC	3.53 µM	> 100 µM	> 100 µM	3.16 µM	3.35 µM	> 100 µM	> 100 µM	3.11 µM	5.16 µM	> 100 µM
N#CC1(C#N)NC(c2cccs2)C(C#N)(C#N)NC1c1cccs1 (stereo not given)	> 100 µM	> 100 µM	> 100 µM	> 100 µM	> 100 µM	> 100 µM	> 100 µM	51.8 µM	> 100 µM	41.3 µM
CCCC(=O)NC(Nc1ccc(S(=O)(=O)Nc2cc(C)on2)cc1)(C(=O)OCC)C(F)(F)F (stereo not given)	> 100 µM	> 100 µM	> 100 µM	> 100 µM	> 100 µM	> 100 µM	> 100 µM	> 100 µM	> 100 µM	> 100 µM
